The source made the active and inactive calls. No cut-off for these calls is given here.
Tests used:
786-0 = assay: Antiproliferative activity against human 786-0 cells assessed as inhibition of cell growth incubated for 48 hrs by MTT assay; format: functional, cell-based; details: 786-0, 48 h
HCT-116 [1] = assay: Antiproliferative activity against human HCT-116 assessed as inhibition of cell viability incubated for 24 hrs by CCK8 method; format: functional, cell-based
HCT-116 [2] = assay: Induction of apoptosis in human HCT-116 assessed as viable cells at 2 uM incubated for 24 hrs Annexin V FITC/PI double staining based flow cytometry (Rvb =90.0%); format: functional; details: read-out: Activity
HCT-116 [3] = assay: Induction of apoptosis in human HCT-116 assessed as early apoptotic cells at 2 uM incubated for 24 hrs Annexin V FITC/PI double staining based flow cytometry (reference value: 1.07 %); format: functional
HCT-116 [4] = assay: Induction of apoptosis in human HCT-116 assessed as late apoptotic cells at 2 uM incubated for 24 hrs Annexin V FITC/PI double staining based flow cytometry (reference value: 8.02 %); format: functional
HCT-116 [5] = assay: Induction of apoptosis in human HCT-116 assessed as late apoptotic cells at 1 uM pretreated with Z-VAD-FMK for 30 mins followed by compound addition and measured after 24 hrs by Annexin V-FITC/PI double staining based flow cytometry (reference value: 7.43 %); format: functional
HCT-116 [6] = assay: Induction of apoptosis in human HCT-116 assessed as viable cells at 2 uM pretreated with Z-VAD-FMK for 30 mins followed by compound addition and measured after 24 hrs by Annexin V-FITC/PI double staining based flow cytometry (reference value: 90.8%); format: functional; details: read-out: Activity
HCT-116 [7] = assay: Antiproliferative activity against Bax knockout human HCT-116 cells assessed as inhibition of cell viability incubated for 24 hrs by CCK8 assay; format: functional, cell-based; details: HCT-116, 24 h
HCT-116 [8] = assay: Antiproliferative activity against p53 knockout human HCT-116 cells assessed as inhibition of cell viability incubated for 24 hrs by CCK8 assay; format: functional, cell-based; details: HCT-116, 24 h
HCT-116 [9] = assay: Antiproliferative activity against ATG5 knockout human HCT-116 cells assessed as inhibition of cell viability incubated for 24 hrs by CCK8 assay; format: functional, cell-based; details: HCT-116, 24 h
HCT-116 [10] = assay: Effect on C-PARP expression level in p53 knockout human HCT-116 cells at 1 to 2 uM incubated for 24 hrs by Western blot analysis; format: functional, cell-based; details: dose 1-2 µM
HCT-116 [11] = assay: Effect on caspase 3 expression level in p53 knockout human HCT-116 cells at 1 to 2 uM incubated for 24 hrs by Western blot analysis; format: functional, cell-based; details: dose 1-2 µM
HCT-116 [12] = assay: Induction of autophagy in human HCT-116 cells transfected with tandem mRFP-GFP-LC3 plasmid assessed as increase in LC3-II accumulation incubated for 24 hrs by Western blot analysis; format: functional, cell-based; details: dose 0.5-20 µM
HCT-116 [13] = assay: Inhibition of colony formation in human HCT-116 cells assessed as reduction in number of colonies at 0.5 to 2 uM measured after 24 hrs by crystal violet staining based analysis; format: functional, cell-based; details: dose 0.5-2 µM
CT26 [14] = assay: Antitumor activity against mouse CT26 cells implanted in female BALB/c mouse assessed as reduction in tumor volume at 1 to 2 mg/kg administrated once every 3 days for 18 days; format: functional, organism-based; details: dose 1-2 mg/kg, time 18.0 day
[15] = Toxicity in female BALB/c mouse implanted with mouse CT26 cells assessed as change in heart morphology at 1 to 2 mg/kg administrated once every 3 days for 18 days by H&E staining based analysis; format: organism-based; details: in vivo, 432 h, dose 1-2 mg/kg, time 18 day
HCT-116 [16] = assay: Antiproliferative activity against human HCT-116 assessed as inhibition of cell viability at 0.5 to 2 uM by CCK8 method; format: functional, cell-based; details: dose 0.5-2 µM, time <= 7.0 day
HCT-116 [17] = assay: Inhibition of cell migration in human HCT-116 cells at 1 to 2 uM incubated for 24 hrs by cell scratch assay; format: functional, cell-based; details: dose 1-2 µM
HCT-116 [18] = assay: Induction of morphological changes in human HCT-116 cells assessed as suppression of cell growth at 0.5 to 2 uM by microscopic analysis; format: functional, cell-based; details: dose 0.5-2 µM
HCT-116 [19] = assay: Induction of morphological changes in human HCT-116 cells assessed as appearance of inflated cell shape at 0.5 to 2 uM by microscopic analysis; format: functional, cell-based; details: dose 0.5-2 µM
HCT-116 [20] = assay: Induction of morphological changes in human HCT-116 cells assessed as decrease in adherence to culture dish at 0.5 to 2 uM by microscopic analysis; format: functional, cell-based; details: dose 0.5-2 µM
HCT-116 [21] = assay: Induction of apoptosis in human HCT-116 cells assessed as effect on cleaved caspase-3 expression level at 0.5 to 2 uM incubated for 24 hrs by Western blot analysis; format: functional, cell-based; details: dose 0.5-2 µM
HCT-116 [22] = assay: Induction of apoptosis in human HCT-116 cells assessed as effect on cleaved caspase 9 expression level at 0.5 to 2 uM incubated for 24 hrs by Western blot analysis; format: functional, cell-based; details: dose 0.5-2 µM
HCT-116 [23] = assay: Effect on PARP expression level in Bax knockout human HCT-116 cells at 1 to 2 uM incubated for 24 hrs by Western blot analysis; format: functional, cell-based; details: dose 1-2 µM
HCT-116 [24] = assay: Effect on cleaved caspase 3 expression level in Bax knockout human HCT-116 cells at 1 to 2 uM incubated for 24 hrs by Western blot analysis; format: functional, cell-based; details: dose 1-2 µM
HCT-116 [25] = assay: Induction of autophagy in human HCT-116 cells transfected with mRFP-GFP-LC3B assessed as autophagolysosome formation by measuring RFP fluorescence at 0.5 to 2 uM incubated for 24 hrs by DAPI staining based fluorescence confocal microscopic analysis; format: functional, cell-based; details: dose 0.5-2 µM
HCT-116 [26] = assay: Induction of autophagy in human HCT-116 cells transfected with mRFP-GFP-LC3B assessed as autophagolysosome formation by measuring decrease in GFP fluorescence at 0.5 to 2 uM incubated for 24 hrs by DAPI staining based fluorescence confocal microscopic analysis; format: functional, cell-based; details: dose 0.5-2 µM
HCT-116 [27] = assay: Induction of autophagy in human HCT-116 cells transfected with mRFP-GFP-LC3B assessed as autophagolysosome formation by measuring increase in mRFP to GFP fluorescence ratio at 0.5 to 2 uM incubated for 24 hrs by DAPI staining based fluorescence confocal microscopic analysis; format: functional, cell-based; details: dose 0.5-2 µM
HCT-116 [28] = assay: Upregulation of autophagy pathway related genes expression in human HCT-116 cells at 1 uM incubated for 24 hrs by GSVA enrichment analysis; format: functional, cell-based
HCT-116 [29] = assay: Inhibition of colony formation in ATG5 knockout human HCT-116 cells assessed as reduction in number of colonies at 1 to 4 uM measured after 24 hrs by crystal violet staining based analysis; format: functional, cell-based; details: dose 1-4 µM
HCT-116 [30] = assay: Inhibition of colony formation in ATG7 knockout human HCT-116 cells assessed as reduction in number of colonies at 1 to 4 uM measured after 24 hrs by crystal violet staining based analysis; format: functional, cell-based; details: dose 1-4 µM
CT26 [31] = assay: Antitumor activity against mouse CT26 cells implanted in female BALB/c mouse assessed as reduction in tumor volume at 2 mg/kg administrated once every 3 days for 18 days; format: functional, organism-based; details: time 18.0 day
[32] = Toxicity in female BALB/c mouse implanted with mouse CT26 cells assessed as change in body weight at 1 to 2 mg/kg administrated once every 3 days for 18 days; format: organism-based; details: in vivo, 432 h, dose 1-2 mg/kg, time 18 day
CT26 [33] = assay: Antitumor activity against mouse CT26 cells implanted in female BALB/c mouse assessed as reduction in tumor weight at 1 mg/kg administrated once every 3 days for 18 days relative to control; format: functional; parameters: scale not given: the % may be the effect or the level left; details: time 18 day

CCN(CC)CCCNCc1cc2c3ccccc3n(CCCc3ccccc3)c2c(CNCCCN(CC)CC)n1
IC50 (786-0): 3.86 µM
Activity (HCT-116 [1]): Dose-dependent-effect
IC50 (HCT-116 [1]; HCT-116, 24 h): 2.75 µM
viability at 2 µM (HCT-116 [2]): 80.5%
Activity (HCT-116 [3]): 2.78%
Activity (HCT-116 [4]): 13.9%
Activity (HCT-116 [5]): 12.4%
viability at 2 µM (HCT-116 [6]): 82.3%
IC50 (HCT-116 [7]): 2.76 µM
IC50 (HCT-116 [8]): 2.45 µM
IC50 (HCT-116 [9]): 6.62 µM
Activity (HCT-116 [10]): inactive
Activity (HCT-116 [11]): inactive
Activity (HCT-116 [12]): Dose-dependent-effect; Transformation Of Lc3-I To Lc3-Ii Observed
inhibition (HCT-116 [13]): Active
Activity (CT26 [14]): Active
Activity [15]: Non-toxic
Activity (HCT-116 [16]): Time-dependent-effect
inhibition (HCT-116 [17]): Active
Activity (HCT-116 [18]): Active
Activity (HCT-116 [19]): Active
Activity (HCT-116 [20]): Active
Activity (HCT-116 [21]): inactive
Activity (HCT-116 [22]): inactive
Activity (HCT-116 [23]): inactive
Activity (HCT-116 [24]): inactive
Activity (HCT-116 [25]): Active; Rfp Fluorescence Remained Unchanged
Activity (HCT-116 [26]): Active
Activity (HCT-116 [27]): Active
Activity (HCT-116 [28]): Active
inhibition (HCT-116 [29]): Active; Insignificant Decrease In Number Of Colonies Observed
inhibition (HCT-116 [30]): Active; Insignificant Decrease In Number Of Colonies Observed
Activity (CT26 [31]): Active; Stronger Than 4Mg/Kg Of Cisplatin Treatment Group
Activity [32]: Non-toxic
Activity (CT26 [33]): 56.5%

Source: ChEMBL document CHEMBL6096670, “Design, synthesis and biological evaluation of novel β-carbolines as antitumor agents via targeting autophagy in colorectal cancer” (Eur J Med Chem, 2025)
